Molecules are shown by their SMILES. Like-named read-outs stand apart in the source and are kept apart here.

The target in data set [1] is T1, human androgen receptor (hAR) (Homo sapiens, UniProt P10275).
T1 construct: expressed in transfected cells
T1 sequence (P10275 1-920): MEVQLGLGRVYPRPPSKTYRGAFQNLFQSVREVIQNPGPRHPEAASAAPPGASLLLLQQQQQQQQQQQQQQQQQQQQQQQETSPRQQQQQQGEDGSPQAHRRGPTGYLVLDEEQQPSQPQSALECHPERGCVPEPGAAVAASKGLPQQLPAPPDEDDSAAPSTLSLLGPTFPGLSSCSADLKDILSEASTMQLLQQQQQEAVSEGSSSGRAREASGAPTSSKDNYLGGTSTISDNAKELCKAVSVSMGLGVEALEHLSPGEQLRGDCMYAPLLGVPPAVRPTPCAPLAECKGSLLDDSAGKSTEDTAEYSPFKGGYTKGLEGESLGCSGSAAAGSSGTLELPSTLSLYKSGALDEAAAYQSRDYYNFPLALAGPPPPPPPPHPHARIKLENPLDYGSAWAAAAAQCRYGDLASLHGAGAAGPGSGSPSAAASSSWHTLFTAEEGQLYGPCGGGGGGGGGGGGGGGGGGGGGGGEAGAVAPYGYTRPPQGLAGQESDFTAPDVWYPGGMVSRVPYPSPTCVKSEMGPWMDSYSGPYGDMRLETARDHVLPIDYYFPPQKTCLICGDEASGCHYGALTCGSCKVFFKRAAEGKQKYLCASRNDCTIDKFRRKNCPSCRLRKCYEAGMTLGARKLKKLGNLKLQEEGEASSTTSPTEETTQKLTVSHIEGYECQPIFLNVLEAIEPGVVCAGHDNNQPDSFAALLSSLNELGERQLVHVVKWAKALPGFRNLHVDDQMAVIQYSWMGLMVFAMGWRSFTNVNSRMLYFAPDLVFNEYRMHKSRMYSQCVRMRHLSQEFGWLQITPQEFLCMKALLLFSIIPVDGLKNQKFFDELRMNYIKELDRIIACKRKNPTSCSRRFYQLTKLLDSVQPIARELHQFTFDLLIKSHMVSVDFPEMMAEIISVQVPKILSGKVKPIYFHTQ
Briefly: Functional response (transactivation) test in HALP2 cells (HeLa stably expressing hAR and ARE-luciferase reporter). The class given is cell-based. The conditions noted are these: HALP2 cells; for Emax: HeLa, maximal activation by the compound compared with DHT alone (100%), read-out: % effect relative to DHT (100%); for EC50: agonism: concentration inducing 50% of the maximum agonistic effect of the tested compound, 24 hours, read-out: EC50. From the text: This test constitutes a method of identifying pure or partial agonists which mimic the effects of natural hormones, such as DHT (dihydrotestosterone) in the present case or, on the other hand, antagonists which inhibit them.
For this transactivation test, plasmids encoding a reporter gene and the human androgen receptor (hAR) are introduced together by transfection into the HeLa cell line. The reporter plasmid contains luciferase cDNA under the control of the AREs contained in the promoter sequences of the probasin gene (3xpbAREminicoll-luciferase/pGL3-puro). The expression of the reporter gene constitutes an indication of the transcriptional activity of hAR. It also encodes a protein allowing the cells expressing it to resist a treatment with puromycin. The plasmid encoding hAR contains the cDNA of hAR under the control of the Cytomegalovirus (CMV) promoter. It also encodes a protein allowing the cells expressing it to resist a treatment with neomycin. The treatment of cells with increasing amounts of potentially agonistic compounds will increase the expression of the reporter gene. To detect antagonists, on the other hand, increasing doses of test compounds are tested in the presence of […] of DHT. The expression of the reporter gene, which is constant for each dose of DHT, decreases when the concentration of the test compounds increases.
The functional response test is conducted on 96-well plates. The HALP2 cells are seeded (20,000 cells per well) in culture medium (DMEM with phenol red, 1% de Pen-Strep, 1% of non-essential amino acids, 10% of fetal bovine serum, 400 μg/mL Geneticin and 0.150 puromycin) on day 1. After 24 hours incubating at 37° C., 5% CO2, high humidity (day 2) the medium is removed and refreshed with test medium (DMEM without phenol red supplemented, 1% de Pen-Strep, 1% of non-essential amino acids and 5% of desteroidised foetal bovine serum). After another 24 hours incubating at 37° C., 5% CO2, high humidity (day 3), the medium is renewed once more before the phase of stimulation.
The cells are placed in contact with the compounds for 24 hours at 37° C., 5% CO2, high humidity. On day 4 the medium is then removed and the luciferase activity reading reagent is placed in contact with the cells in accordance with the manufacturer's instructions (SteadyLite, Perkin-Elmer). The luminescence produced is detected on an Envision reader (Perkin-Elmer). […]
The determination of the relative agonism/antagonism of a compound is obtained by comparing the maximal activation obtained with said compound and the activation obtained with DHT alone (100%).
For orientation: In a reporter assay the amount or activity of a reporter protein is the signal.

The nature of data set [2]: Determination of absolute bioavailability (restricted PK profile, oral and intravenous). The conditions noted are these: absolute bioavailability (F), male Sprague Dawley rats, oral 10 mg/kg AUC(0-6 h) vs intravenous 3 mg/kg AUC(0-3 h). The class given is in vivo. As to the method:
To screen rapidly imidazolidines derivatives based on their absolute bioavailabity, restricted pharmacokinetic profile with only fours sampling time points after oral and intravenous route is investigated in Sprague Dawley rats as follows: each test compound is dosed orally (10 mg/kg) and intravenously (3 mg/kg) to groups of 3 male Sprague Dawley rats. Oral doses are administered as solution in EtOH/PEG400/H2O (1/79/20; v/v) by esophageal gavage (2 mg/mL; 5 mL/kg) and intravenous dose is given as solution in DMSO/PEG400/H2O (1/65/34; v/v) as a bolus in the tail vein (3 mg/mL; 1 mL/kg). Before oral dosing, animals are deprived of food (water ad libitum) for at least 16 hours before the start of the study and 6 hours after administration.
Blood is collected at the retro-orbital sinus into polypropylene tubes (Li-heparinate) at +4° C. at the following sampling-times: 0.083, 0.25, 1 and 3 h after intravenous injection and 0.25, 1, 3 and 6 hours after oral dosing. Three (3) animals are sampled per time-point; each animal being sampled four times. After centrifugation at 5000 rpm for 10 min at +4° C., plasma is collected into polypropylene tubes and kept frozen at −20° C. pending assays. Plasma samples are assayed by a LC-MS/MS method with a lower limit of quantification of 1 to 10 ng/mL depending on the compound (volume of plasma: 100 μL).
A LC-MS/MS method for quantification in heparinized plasma was developed for each test compound. Sample preparation consists of a precipitation of plasma proteins with methanol and filtration by centrifugation of supernatant on Captiva deep-well 96 0.2 μm filter plates. Water was added to methanol supernatant phase prior to analysis by liquid chromatography (Pursuit 5 C18 20×2.0 mm VARIAN, 2 μL loop, gradient Water/Methanol (90/10 to 0/100) over 1.7 min) with turboionspray tandem mass spectrometry (API4000) in negative mode using multiple reaction monitoring. The method includes 8 standard and 3 quality control levels with lower limit of quantification corresponding to first standard level.
Exposures are determined using a non compartmental model (WinNonLin 2.1) and the absolute bioavailability (F) is calculated as follows: [AUC(0-6 h) oral*3 mg/kg]/AUC(0-3 h) IV 10 mg/kg] and expressed in percentage.

Data set [3] relates to castrated immature young rats. As to the kind of experiment: Adapted model of Hershberger's test. The class given is in vivo, Sprague Dawley rats. The settings on record: Rattus norvegicus, po, 96 h, ORX control = 0%, SHAM control = 100%, per os daily for 4 days, dose tested 30 mg/kg.
The mark [4] stands for this setting: male, Sprague-Dawley, rat, plasma, po, 10 mg/kg, read-out: Bioavailability.
The mark [5] stands for this setting: levator ani weight, read-out: Anabolic activity %.
Setting [6] is: ventral prostate weight, read-out: Androgenic activity % (Prostate).

As usually defined, the bioavailability is dose-corrected exposure relative to a reference, in per cent. For `CC(O)C1(c2ccccc2)C(=O)N(c2ccc(C#N)c(C(F)(F)F)c2)C(=O)N1C` (single isomer, unassigned) [Example 4, 4-[2,5-Dioxo-4-(1-hydroxyethyl)-3-methyl-4-phenylimidazolidin-1-yl]-2-trifluoromethylbenzonitrile], the Emax in data set [1] lay within 0 to 5%. Moreover, the bioavailability result in data set [2] is given as “# (0-49%)”.

In general, EC50 refers to the concentration at which the effect is half-maximal. Turning to `CN1C(=O)N(c2ccc(C#N)c(C(F)(F)F)c2)C(=O)C1(CO)c1ccccc1` (stereo not shown) [Example 1, 4-[2,5-Dioxo-4-(hydroxymethyl)-3-methyl-4-phenylimidazolidin-1-yl]-2-trifluoromethylbenzonitrile], in data set [1], the Emax is 21 to 40% and the EC50 lay within 0.01 to 10 nM. The bioavailability in data set [2] (setting [4]) was 50 to 90%.

As for `CN1C(=O)N(c2ccc(C#N)c(C(F)(F)F)c2)C(=O)C1(CO)c1ccc(F)cc1` (stereo not shown) [Example 6, 4-[2,5-Dioxo-4-(4-fluorophenyl)-4-(hydroxymethyl)-3-methylimidazolidin-1-yl]-2-trifluoromethylbenzonitrile], the Emax in data set [1] was in the range of 21 to 40%. Further, the EC50 in data set [1] was in the range of 11 to 100 nM. Further, the bioavailability in data set [2] (setting [4]) lay within 50 to 90%. For the same compound, the response vs control in vivo at 30 mg/kg in data set [3] (setting [5]) is 25 to 50%; in data set [3] (setting [6]), 0.5 to 25%.

As to `CN1C(=O)N(c2ccc(C#N)c(C(F)(F)F)c2)C(=O)[C@]1(CO)c1ccccc1` [Example 11, (R)-4-[2,5-Dioxo-4-(hydroxymethyl)-3-methyl-4-phenylimidazolidin-1-yl]-2-trifluoromethylbenzonitrile], the Emax in data set [1] fell in the range of 0 to 5%. Also, the response vs control in vivo at 30 mg/kg lay in the range of 50 to 75% in data set [3] (setting [5]) and 0.5 to 25% in data set [3] (setting [6]).

For the origin of these results see patent US8383608B2, “Imidazolidine compounds as androgen receptor modulators” (Dart Therapeutics LLC, priority 2008, dated 2013).
